Experimental data: paper PMC9909651 (Acta Pharmacologica Sinica, 2023)
“Also recorded” adds a separate entry of the source.

Key:
VP30_110–272 protein [1] = biological target: T1, VP30_110–272 protein (Zaire ebolavirus, UniProt Q05323); experiment: biochemical; format: binding, Ebola virus
[2] = biological target: VP30/NP interface (VP30_110–272 protein, NP-FITC peptide) (Zaire ebolavirus, UniProt Q05323); experiment: biochemical; format: binding, Ebola virus
VP30_110–272 protein [3] = biological target: T1, VP30_110–272 protein; format: binding, Ebola virus
[4] = system: EBOV minigenome in Huh7-4P cells; format: cell-based, Ebola virus
VP30 protein = VP30 protein (Zaire ebolavirus, UniProt Q05323); format: binding, Ebola virus
[5] = system: EBOV minigenome in Huh7-4P cells; format: cell-based, Ebola virus; remark: listed apart in the source
[6] = biological target: NP-FITC (NP-derived VP30-binding peptide labelled with FITC) (Ebola virus (EBOV)); experiment: fluorescence polarisation
[7] = biological target: T2, Ebola virus VP30 110-272 protein (MBP tag removed) (Ebola virus (EBOV)), Q05323; experiment: fluorescence polarisation
T2 chain: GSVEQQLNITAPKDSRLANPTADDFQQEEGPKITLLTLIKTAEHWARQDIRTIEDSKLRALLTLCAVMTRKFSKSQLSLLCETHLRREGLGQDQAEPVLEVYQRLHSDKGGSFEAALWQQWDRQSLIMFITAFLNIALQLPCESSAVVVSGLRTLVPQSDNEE

For CCCCCCCCCCCC1=C(O)C(=O)C=C(O)C1=O [Embelin], the Kd (VP30_110–272 protein [1]) was 4.62 µM, the IC50 ([2]; IC50, competitive FP assay) was 33.2 µM and the “effect on stability / melting temperature (Tm) of VP30, TSA” value (VP30_110–272 protein [3]) was “can specifically bind to VP30 and change its melting temperature Tm; also recorded: increased the stability of VP30 at pH 6.5, 7.0, 7.5 and 8.0”.

For O=C(O)c1cnc(O)nc1O [2,4-dihydroxypyrimidine-5-carboxylic acid], the “competitive FP assay, result in words” value [2] was “failed in the FP concentration gradient experiment”.

Cc1cc(SCc2sc(-c3ccc(C(F)(F)F)c(F)c3)nc2C)ccc1OCC(=O)O [GW0742] was tested, and the “antiviral activity in MG assay, in words” value [4] was “good antiviral activity”, the “binding to VP30 already bound to Embelin or 8-gingerol, synergy SPR” value (VP30 protein) was “a reduction in binding was observed” and the “synergistic effect, in words” value [5] was “does not exhibit obvious synergistic effects”.

B1: Ebola virus VP30 110-272 protein (MBP tag removed), Q05323 110-272 (domain or fragment)
chain: GSVEQQLNITAPKDSRLANPTADDFQQEEGPKITLLTLIKTAEHWARQDIRTIEDSKLRALLTLCAVMTRKFSKSQLSLLCETHLRREGLGQDQAEPVLEVYQRLHSDKGGSFEAALWQQWDRQSLIMFITAFLNIALQLPCESSAVVVSGLRTLVPQSDNEE
In the case of B1, the IC50 [6] is reported as 3.07 µM.

With PTVAPPAPVYR (modifications not checked) [unlabeled NP peptide (NP-derived VP30-binding peptide)] the IC50 [7] was 0.33 µM.
